This is an account of results in patent US20100311748A1, “HETEROCYCLIC AMIDES USEFUL FOR THE TREATMENT OF CANCER AND PSORIASIS” (ASTRAZENECA AB, priority 2007, published 2010).

As usually defined, the % Inhibition is the share of the control response that was lost under treatment. A high value points to strong suppression. For orientation: inhibition means the change of the read-out against control, counted positive when it falls.

One assay has as its system Hedgehog pathway. Kind of assay: Hedgehog Pathway Cellular Differentiation Assay (alkaline phosphatase production in C3H10T1/2 cells with Shh ligand). Particulars: 3 μM compound, Shh ligand conditioned media, 72 h, alkaline phosphatase. In kind it is cell-based. In outline:
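C3H10T1/2 cells in DMEM/2% FBS with Shh-conditioned medium were treated 72 h with compound, threefold dilutions from 30 μM to 3 nM. After RIPA lysis, alkaline phosphatase was read with pNp (1 mg/mL, diethanolamine pH 9.8) at 30 °C, absorbance 405 nm. Percent inhibition and IC50 came from absorbance.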
Regarding `Cc1ccc(-c2ncc[nH]2)cc1NC(=O)c1ccc(OCc2cccc(OCCO)n2)cc1` [Example 122], the “% Inhibition at 3 μM” value was 84.6%.

As for `Cc1ccc(-c2ncc[nH]2)cc1NC(=O)c1ccc2c(c1)OCCN2C` [Example 149, N-[5-(1H-imidazol-2-yl)-2-methyl-phenyl]-2-methyl-5-oxa-2-azabicyclo[4.4.0]deca-7,9,11-triene-8-carboxamide], the “% Inhibition at 3 μM” value is listed as 63.4%.

For `Cc1ccc(-c2ncc[nH]2)cc1NC(=O)c1ccc2c(c1)OCCO2` [Example 151, N-[5-(1H-imidazol-2-yl)-2-methyl-phenyl]-2,5-dioxabicyclo[4.4.0]deca-7,9,11-triene-8-carboxamide], the “% Inhibition at 3 μM” value worked out at 21.9%.

The same assay, now with this note: Mus musculus, C3H 10T1/2, 3 μM compound, Shh ligand conditioned media, 72 h, alkaline phosphatase.
Turning to `Cc1ccc(-c2ncc[nH]2)cc1NC(=O)c1ccc(NC(C)c2ccccn2)cc1` (stereo not drawn) [Example 118, N-[5-(1H-imidazol-2-yl)-2-methylphenyl]-4-[(1-pyridin-2-ylethyl)amino]benzamide], the inhibition at 3 µM was 75.4%.

`Cc1ccc(-c2ncc[nH]2)cc1NC(=O)c1ccc(OCc2cccc(Br)n2)cc1` [Example 119, N-(5-(1H-imidazol-2-yl)-2-methylphenyl)-4-((6-bromopyridin-2-yl)methoxy)benzamide] showed an inhibition at 3 µM of 92.4%.

`Cc1ccc(-c2ncc[nH]2)cc1NC(=O)c1ccc(OCc2ncccc2Br)cc1` [Example 120, 4-[(3-bromopyridin-2-yl)methoxy]-N-[5-(1H-imidazol-2-yl)-2-methylphenyl]benzamide] returned an inhibition at 3 µM of 78.3%.

For the compound `Cc1ccc(-c2nccn2Cc2ncccc2Br)cc1NC(=O)c1ccc(OCc2ncccc2Br)cc1` [Example 121, 4-[(3-bromopyridin-2-yl)methoxy]-N-(5-{1-[(3-bromopyridin-2-yl)methyl]-1H-imidazol-2-yl}-2-methylphenyl)benzamide], the inhibition at 3 µM was found to be 77.8%.

For the compound `COc1cccc(COc2ccc(C(=O)Nc3cc(-c4ncc[nH]4)ccc3C)cc2)n1` [Example 123, N-(5-(1H-imidazol-2-yl)-2-methylphenyl)-4-((6-methoxypyridin-2-yl)methoxy)benzamide], the inhibition at 3 µM is 84.7%.

`Cc1ccc(-c2ncc[nH]2)cc1NC(=O)c1ccc(OCc2cccc(OCCN(C)C)n2)cc1` [Example 124, N-(5-(1H-imidazol-2-yl)-2-methylphenyl)-4-((6-(2-(dimethylamino)ethoxy)pyridin-2-yl)methoxy)benzamide] showed an inhibition at 3 µM of 46.8%.

Consider `Cc1ccc(-c2ncc[nH]2)cc1NC(=O)c1ccc(OCc2cccc(N(C)C)n2)cc1` [Example 125, N-(5-(1H-imidazol-2-yl)-2-methylphenyl)-4-((6-(dimethylamino)pyridin-2-yl)methoxy)benzamide], for which the inhibition at 3 µM is 76.7%.

In turn, `Cc1ccc(-c2ncc[nH]2)cc1NC(=O)c1ccc(OCc2cc(N3CCN(C)CC3)ccn2)cc1` [Example 126, N-[5-(1H-imidazol-2-yl)-2-methylphenyl]-4-{[4-(4-methylpiperazin-1-yl)pyridin-2-yl]methoxy}benzamide] returned an inhibition at 3 µM of 47.2%.

As for `Cc1ccc(-c2ncc[nH]2)cc1NC(=O)c1ccc(OCc2cc(N(C)C)ccn2)cc1` [Example 127, 4-{[4-(dimethylamino)pyridin-2-yl]methoxy}-N-[5-(1H-imidazol-2-yl)-2-methylphenyl]benzamide], the inhibition at 3 µM worked out at 76.3%.

`Cc1ccc(-c2ncc[nH]2)cc1NC(=O)c1ccc(OCc2cccc(N3CCN(C)CC3)n2)cc1` [Example 128, N-(5-(1H-imidazol-2-yl)-2-methylphenyl)-4-((6-(4-methylpiperazin-1-yl)pyridin-2-yl)methoxy)benzamide] displayed an inhibition at 3 µM of 81.5%.

In turn, `Cc1ccc(-c2ncc[nH]2)cc1NC(=O)c1ccc(OCc2cccc(N3CCOCC3)n2)cc1` [Example 129, N-[5-(1H-imidazol-2-yl)-2-methylphenyl]-4-[(6-morpholin-4-ylpyridin-2-yl)methoxy]benzamide] came in with an inhibition at 3 µM of 82.8%.

As to `COc1ccc(COc2ccc(C(=O)Nc3cc(-c4ncc[nH]4)ccc3C)cc2)nc1` [Example 130, N-(5-(1H-imidazol-2-yl)-2-methylphenyl)-4-((5-methoxypyridin-2-yl)methoxy)benzamide], the inhibition at 3 µM stood at 91.9%.

`Cc1ccc(-c2ncc[nH]2)cc1NC(=O)c1ccc(OCc2ccc(OCCO)cn2)cc1` [Example 131, N-(5-(1H-imidazol-2-yl)-2-methylphenyl)-4-((5-(2-hydroxyethoxy)pyridin-2-yl)methoxy)benzamide] came in with an inhibition at 3 µM of 72.7%.

`Cc1ccc(-c2ncc[nH]2)cc1NC(=O)c1ccc(OCc2cc(OCCO)ccn2)cc1` [Example 132, N-(5-(1H-imidazol-2-yl)-2-methylphenyl)-4-((4-(2-hydroxyethoxy)pyridin-2-yl)methoxy)benzamide] returned an inhibition at 3 µM of 77.1%.

Regarding `Cc1ccc(-c2ncc[nH]2)cc1NC(=O)c1ccc(COc2ccccc2C#N)cc1` [Example 133, 4-[(2-cyanophenoxy)methyl]-N-[5-(1H-imidazol-2-yl)-2-methylphenyl]benzamide], the inhibition at 3 µM came to 77%.

Turning to `Cc1ccc(-c2ncc[nH]2)cc1NC(=O)c1ccc(COc2ccccn2)cc1` [Example 134, N-[5-(1H-imidazol-2-yl)-2-methylphenyl]-4-[(pyridin-2-yloxy)methyl]benzamide], at 3 µM the inhibition was 77.3%.

In turn, `COc1cccnc1COc1ccc(C(=O)Nc2cc(-c3ncc[nH]3)ccc2C)cc1` [Example 135, N-(5-(1H-imidazol-2-yl)-2-methylphenyl)-4-((3-methoxypyridin-2-yl)methoxy)benzamide] showed an inhibition at 3 µM of 76.9%.

For the compound `Cc1ccc(-c2ncc[nH]2)cc1NC(=O)c1ccc(OCc2ncccc2C#N)cc1` [Example 136, N-(5-(1H-imidazol-2-yl)-2-methylphenyl)-4-((3-cyanopyridin-2-yl)methoxy)benzamide], testing at 3 µM gave an inhibition of 77%.

Turning to `Cc1ccc(-c2ncc[nH]2)cc1NC(=O)c1ccc(OCc2ncccc2N2CCOCC2)cc1` [Example 137, N-(5-(1H-imidazol-2-yl)-2-methylphenyl)-4-((3-morpholinopyridin-2-yl)methoxy)benzamide], the inhibition at 3 µM is 76.5%.

`Cc1ccc(-c2ncc[nH]2)cc1NC(=O)c1ccc(OCc2ncccc2N2CCN(C)CC2)cc1` [Example 138, N-(5-(1H-imidazol-2-yl)-2-methylphenyl)-4-((3-(4-methylpiperazin-1-yl)pyridin-2-yl)methoxy)benzamide] returned an inhibition at 3 µM of 42.2%.

On to `Cc1ccc(-c2ncc[nH]2)cc1NC(=O)c1ccc(OCc2ccc(N3CCOCC3)cn2)cc1` [Example 139, N-(5-(1H-imidazol-2-yl)-2-methylphenyl)-4-((5-morpholinopyridin-2-yl)methoxy)benzamide], for which the inhibition at 3 µM came out at 84.1%.

The compound `Cc1ccc(-c2ncc[nH]2)cc1NC(=O)c1ccc(NCc2ccc(N3CCOCC3)cn2)cc1` [Example 140, N-(5-(1H-imidazol-2-yl)-2-methylphenyl)-4-((5-morpholinopyridin-2-yl)methylamino)benzamide] showed an inhibition at 3 µM of 85.5%.

In the case of `Cc1ccc(-c2ncc[nH]2)cc1NC(=O)c1ccc(OCC2CCCCN2C(=O)OC(C)(C)C)cc1` (stereo not drawn) [Example 141, tert-butyl 2-((4-(5-(1H-imidazol-2-yl)-2-methylphenylcarbamoyl)phenoxy)methyl)piperidine-1-carboxylate], the inhibition at 3 µM worked out at 85.3%.

`Cc1ccc(-c2ncc[nH]2)cc1NC(=O)c1ccc(OCC2CCCCN2)cc1` (stereo not drawn) [Example 142, N-(5-(1H-imidazol-2-yl)-2-methylphenyl)-4-(piperidin-2-ylmethoxy)benzamide] came in with an inhibition at 3 µM of 31.3%.

In turn, `Cc1ccc(-c2ncc[nH]2)cc1NC(=O)c1ccc(OCC2CCCCN2C)cc1` (stereo not drawn) [Example 143, N-(5-(1H-imidazol-2-yl)-2-methylphenyl)-4-((1-methylpiperidin-2-yl)methoxy)benzamide] showed an inhibition at 3 µM of 62.3%.

In turn, `Cc1ccc(-c2ncc[nH]2)cc1NC(=O)c1ccc(OCc2ncccc2O)cc1` [Example 144, N-(5-(1H-imidazol-2-yl)-2-methylphenyl)-4-((3-hydroxypyridin-2-yl)methoxy)benzamide] came in with an inhibition at 3 µM of 8.8%.

The compound `Cc1ccc(-c2ncc[nH]2)cc1NC(=O)c1ccc(Oc2ccccc2)nc1` [Example 145, N-[5-(1H-imidazol-2-yl)-2-methyl-phenyl]-6-phenoxy-pyridine-3-carboxamide] registered an inhibition at 3 µM of 67.1%.

`Cc1ccc(-c2ncc[nH]2)cc1NC(=O)c1cccc(C#N)c1` [Example 146, 3-cyano-N-[5-(1H-imidazol-2-yl)-2-methyl-phenyl]benzamide] gave an inhibition at 3 µM of 17.1%.

Compound `Cc1ccc(-c2ncc[nH]2)cc1NC(=O)c1ccc(C(F)(F)F)nc1C` [Example 147, N-[5-(1H-imidazol-2-yl)-2-methyl-phenyl]-2-methyl-6-(trifluoromethyl)pyridine-3-carboxamide] yielded an inhibition at 3 µM of 19.3%.

`Cc1ccc(-c2ncc[nH]2)cc1NC(=O)c1cccc(N(C)C)c1` [Example 148, 3-dimethylamino-N-[5-(1H-imidazol-2-yl)-2-methyl-phenyl]benzamide] gave an inhibition at 3 µM of 9.1%.

Compound `Cc1ccc(-c2ncc[nH]2)cc1NC(=O)c1ccc(C(F)(F)F)nc1` [Example 150, N-[5-(1H-imidazol-2-yl)-2-methyl-phenyl]-6-(trifluoromethyl)pyridine-3-carboxamide] displayed an inhibition at 3 µM of 19.4%.

Take `Cc1ccc(-c2ncc[nH]2)cc1NC(=O)c1cccc(Cl)c1` [Example 152, 3-chloro-N-[5-(1H-imidazol-2-yl)-2-methyl-phenyl]benzamide]: at 3 µM the inhibition was 45.3%.

As for `Cc1ccc(-c2ncc[nH]2)cc1NC(=O)c1ccc(N2CCOCC2)nc1` [Example 153, N-[5-(1H-imidazol-2-yl)-2-methyl-phenyl]-6-morpholin-4-yl-pyridine-3-carboxamide], 3 µM produced 53.7% inhibition.
